Test results taken from patent publication US9497963B2, “Methods and compositions for control of gypsy moth, Lymantria dispar” (Simon Fraser University, priority 2008, dated 2016).

Assays:
Set-up in all cases: species or system Lymantria dispar
male gypsy moth antenna = test: Coupled gas chromatographic-electroantennographic detection (GC-EAD); settings: EAD peak size and shape (sharp/broad)
Outline: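 GC column effluent split between flame ionization detector and an excised male moth antenna held between saline-filled glass capillary electrodes, tip removed, in a warm air stream. Antennal potentials assigned to compounds by matching retention times with FID peaks.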

L. dispar PBP 1 = test: Pheromone-binding protein (PBP) ligand binding assay, PBP1
Outline: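 L. dispar PBP1 or PBP2 equilibrated overnight in buffer with test compound or mini-library; free ligand removed by size-exclusion chromatography on P2 gel. Total and protein-bound ligand extracted and quantified by GC-MS per component; % bound = 100×[PBP·L]/[L]tot.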

L. dispar PBP 2 = test: Pheromone-binding protein (PBP) ligand binding assay, PBP2
Description: A. The protein and ligand are incubated in buffer overnight. B. For half of the incubation mixture, the free ligand (L) is separated from the protein-bound ligand (P.L) by size-exclusion chromatography on P2 Gel (BioRad, exclusion limit 2000 Da). The protein elutes from the small column bed, with its ligand bound (see Examples and […] et al. 2000; Staddon and Everton 1980), while the free ligand is retained on the column ([…] et al. 2000). C. […] The extract from the filtrate (B) contains the protein-bound ligand and the extract from the incubation mixture (A) contains all the ligand (bound and free) present in the aqueous phase. The extracts are analyzed by GC-MS, to obtain values for total ligand in solution (L+P.L) and for protein-bound ligand (P.L). These can then be used to calculate % bound (Table 3). These assays were performed as described in FIG. 3 and as follows: L. dispar PBP 1 or PBP 2 was incubated with the test compound or mini-library. The PBP and the ligand(s) (L) were left to equilibrate (eq 2) overnight. The non-bound ligand was then separated from the protein-bound material (PBP.L) by size-exclusion chromatography. By determining the total ligand in solution at equilibrium (eq. 3) and the protein-bound ligand, it is possible to estimate the percentage of ligand bound to the protein at equilibrium (eq. 4). […] This binding assay has been validated extensively in previous studies ([…] et al. 2000). The components of each mini-library separated cleanly by GC, so it was possible to monitor binding of individual components. PBP+L⇄PBP·L (eq. 2) [L]tot=[L]+[PBP·L] (eq. 3) % bound=100×[PBP·L]/[L]tot (eq. 4) Results: The members of each mini-library separated cleanly by GC, therefore it was possible to monitor binding of individual members to PBP1 or PBP2, the two known PBPs in the gypsy moth, by extraction from the aqueous incubation mixture, followed by GC analysis of the extract (FIG. 3).

[1] = member tested within library 3c{2, 1-5}
[2] = tested as single compound, means ± S.E., 4 replicates
[3] = member tested within library 3c{3, 1-5}
[4] = member tested within library 3c{3, 1-5}, Nd = not detected in GC-MS
[5] = member tested within library 3c{5, 1-5}
[6] = member tested within library 3c{1, 1-5}

| PBP1 (% bound) (L. dispar PBP 1; [1]) [%] | PBP1 (% bound) (L. dispar PBP 1; [2]) [%] | PBP2 (% bound) (L. dispar PBP 2; [1]) [%] | PBP2 (% bound) (L. dispar PBP 2; [2]) [%] | PBP1 (% bound) (L. dispar PBP 1; [3]) [%] | PBP2 (% bound) (L. dispar PBP 2; [4]) [%] | PBP1 (% bound) (L. dispar PBP 1; [5]) [%] | PBP2 (% bound) (L. dispar PBP 2; [5]) [%] | PBP1 (% bound) (L. dispar PBP 1; [6]) [%] | PBP2 (% bound) (L. dispar PBP 2; [6]) [%] | SMILES | GC-EAD activity (male gypsy moth antenna) |
| --- | --- | --- | --- | --- | --- | --- | --- | --- | --- | --- | --- |
| 14 ± 0.5 | 28 ± 0.1 | 33 ± 0.6 | 19 ± 0.2 |  |  |  |  |  |  | CCOc1ccc(OCC)cc1 [3c{2,2}, 1,4-Diethoxy benzene] | Trace |
| 10 ± 0.3 |  | 22 ± 0.3 |  | 13 ± 0.3 | 6 ± 0.2 |  |  |  |  | CCCOc1ccc(OCC)cc1 [3c{2,3}, 1-ethoxy-4-propoxy benzene] | None |
|  | 9 ± 0.7 |  | 8 ± 0.2 |  |  | 5 ± 0.1 | 1 ± 0.1 |  |  | CC(C)CCOc1ccc(OCCC(C)C)cc1 [3c{5,5}, 1,4-Di-(3-methyl-butyloxy) benzene] | None |
|  | 15 ± 0.7 |  | 5 ± 0.2 | 4 ± 0.3 | 3 ± 0.1 |  |  |  |  | CCCOc1ccc(OCCC)cc1 [3c{3,3}, 1,4-Dipropoxy benzene] | None |
|  |  |  |  | 13 ± 0.3 | 7 ± 0.2 |  |  | 7 ± 0.5 | 5 ± 2.1 | CCCOc1ccc(OC)cc1 [3c{1,3}, 1-methoxy-4-propoxy-benzene] | + sharp |
|  | 40 ± 2.5 |  | 13 ± 2.1 |  |  |  |  | 24 ± 0.3 | 19 ± 0.9 | COc1ccc(OC)cc1 [3c{1,1}, 1,4-Dimethoxy benzene] | + sharp |
